Experiment [1] can be described thus: Antioxidant activity assessed as decrease in initial DPPH concentration after 30 min by MicroELISA reader analysis. The class given is functional. Background: Loss of DPPH colour is used to gauge radical scavenging.
Experiment [2] relates to L02. Kind of experiment: Hepatoprotective activity in Homo sapiens (human) LO2 cells assessed as reversal of CCl4-induced increase in malondialdehyde level at […] treated prior to CCl4 addition measured after 24 hr (CCl4 Rvb = 170 +/-4.3%). The class given is functional.
The subject of experiment [3] is L02. Kind of experiment: Hepatoprotective activity in Homo sapiens (human) LO2 cells assessed as reversal of CCl4-induced increase in malondialdehyde level at 10 mM treated prior to CCl4 addition measured after 24 hr (CCl4 Rvb = 170 +/-4.3%). The class given is functional.
Experiment [4] relates to L02. Kind of experiment: Hepatoprotective activity in Homo sapiens (human) LO2 cells assessed as protection against CCl4-induced cytotoxicity at 10 to […] treated prior to CCl4 addition measured after 24 hr by MTT assay. The class given is functional, cell-based.
The test system of experiment [5] is L02. Kind of experiment: Hepatoprotective activity in Homo sapiens (human) LO2 cells assessed as protection against CCl4-induced cytotoxicity at […] treated prior to CCl4 addition measured after 24 hr by MTT assay. The class given is functional, cell-based.
Experiment [6] relates to L02. The experiment can be described thus: Hepatoprotective activity in Homo sapiens (human) LO2 cells assessed as reversal of CCl4-induced decrease in superoxide dismutase activity at […] treated prior to CCl4 addition measured after 24 hr by xanthine/xanthine oxidase assay (CCl4 Rvb = 47 +/-4.4%). The class given is functional. Set-up: scale not given: the % may be the effect or the level left.

Experiment [7] concerns L02. The experiment can be described thus: Hepatoprotective activity in Homo sapiens (human) LO2 cells assessed as reversal of CCl4-induced decrease in superoxide dismutase activity at 1 mM treated prior to CCl4 addition measured after 24 hr by xanthine/xanthine oxidase assay (CCl4 Rvb = 47 +/-4.4%). The class given is functional. On the set-up: scale not given: the % may be the effect or the level left.

Experiment [8] concerns L02. The experiment can be described thus: Hepatoprotective activity in Homo sapiens (human) LO2 cells assessed as reversal of CCl4-induced decrease in GSH-Px activity at 10 mM treated prior to CCl4 addition measured after 24 hr (CCl4 Rvb = 49 +/-3.8%). The class given is functional. On the set-up: scale not given: the % may be the effect or the level left.
Experiment [9] has as its system L02. The experiment can be described thus: Hepatoprotective activity in Homo sapiens (human) LO2 cells assessed as reversal of CCl4-induced decrease in GSH-Px activity at 50 mM treated prior to CCl4 addition measured after 24 hr (CCl4 Rvb = 49 +/-3.8%). The class given is functional. On the set-up: scale not given: the % may be the effect or the level left.
For experiment [10], the system named is L02. The experiment can be described thus: Hepatoprotective activity in Homo sapiens (human) LO2 cells assessed as reversal of CCl4-induced increase in malondialdehyde level at 1 mM treated prior to CCl4 addition measured after 24 hr (CCl4 Rvb = 170 +/-4.3%). The class given is functional.
The test system of experiment [11] is L02. The experiment can be described thus: Hepatoprotective activity in Homo sapiens (human) LO2 cells assessed as reversal of CCl4-induced decrease in superoxide dismutase activity at 50 mM treated prior to CCl4 addition measured after 24 hr by xanthine/xanthine oxidase assay (CCl4 Rvb = 47 +/-4.4%). The class given is functional. Set-up: scale not given: the % may be the effect or the level left.

Experiment [12] deals with L02. Kind of experiment: Hepatoprotective activity in Homo sapiens (human) LO2 cells assessed as reversal of CCl4-induced decrease in superoxide dismutase activity at 10 mM treated prior to CCl4 addition measured after 24 hr by xanthine/xanthine oxidase assay (CCl4 Rvb = 47 +/-4.4%). The class given is functional. On the set-up: scale not given: the % may be the effect or the level left.

Experiment [13] concerns L02. Kind of experiment: Hepatoprotective activity in Homo sapiens (human) LO2 cells assessed as protection against CCl4-induced cytotoxicity at 50 to […] treated prior to CCl4 addition measured after 24 hr by MTT assay. The class given is functional, cell-based. In general terms: Tetrazolium assays rely on reduction of a dye to a coloured formazan, in cell work by metabolically active cells.

In experiment [14] the test system is L02. Kind of experiment: Hepatoprotective activity in Homo sapiens (human) LO2 cells assessed as reversal of CCl4-induced decrease in GSH-Px activity at […] treated prior to CCl4 addition measured after 24 hr (CCl4 Rvb = 49 +/-3.8%). On the set-up: scale not given: the % may be the effect or the level left. The class given is functional.
Experiment [15] concerns L02. Kind of experiment: Hepatoprotective activity in Homo sapiens (human) LO2 cells assessed as reversal of CCl4-induced decrease in GSH-Px activity at 1 mM treated prior to CCl4 addition measured after 24 hr (CCl4 Rvb = 49 +/-3.8%). The class given is functional. Set-up: scale not given: the % may be the effect or the level left.
The test system of experiment [16] is L02. The experiment can be described thus: Hepatoprotective activity in Homo sapiens (human) LO2 cells assessed as reversal of CCl4-induced increase in malondialdehyde level at 50 mM treated prior to CCl4 addition measured after 24 hr (CCl4 Rvb = 170 +/-4.3%). The class given is functional.

The structures appear in SMILES notation. Activity calls are given as the source filed them. The calls are words filed in the database; no cut-off is given here.

The term IC50 denotes the concentration at which inhibition is half-maximal. In the case of `COc1cc(CCO[C@@H]2O[C@H](CO)[C@@H](O)[C@H](O)[C@H]2O)cc(OC)c1O`, in [1], the IC50 is 61.6 µM.

As for `CCOc1cc(CCO[C@@H]2O[C@H](CO)[C@H](O)[C@H](O)[C@H]2O)ccc1O`, in [1], the IC50 stood at 87.5 µM.

Regarding `COc1cc(CCO[C@@H]2O[C@H](CO)[C@H](O)[C@H](O)[C@H]2O)cc(OC)c1O`, the IC50 in [1] is 70.1 µM.

Take `O=C1O[C@H]([C@@H](O)CO)C(O)=C1O` [ASCORBIC ACID]: the IC50 in experiment [1] came out at 54.6 µM.

Consider `COc1cc(CCO[C@@H]2O[C@H](CO)[C@@H](O)[C@H](O)[C@H]2O)ccc1O`, for which, in [1], the IC50 was 59.8 µM.

Consider `CCOc1cc(CCO[C@@H]2O[C@H](CO)[C@@H](O)[C@H](O)[C@H]2O)ccc1O`, for which the IC50 in experiment [1] is 66.8 µM.

Regarding `OC[C@H]1O[C@@H](OCCc2cc(Br)c(O)c(Br)c2)[C@H](O)[C@@H](O)[C@H]1O`, the IC50 in experiment [1] was more than 100 µM.

With `OC[C@H]1O[C@@H](OCCc2cc(O)c(O)c(O)c2)[C@H](O)[C@@H](O)[C@@H]1O`, the Activity in the experiment with L02 [2] was 117%; with L02 [3] it was 151%; with L02 [6] it was 83%; in the experiment with L02 [7] it was 50%; in the experiment with L02 [8], 57%; in the experiment with L02 [9], 71%. In addition, the Activity with L02 [10] is on record as 167%; in the experiment with L02 [11], 70%; in the experiment on L02 [12], 55%; with L02 [14], 80%; with L02 [15], 54%; with L02 [16], 128%. The outcome with L02 [4], with L02 [5] and in the experiment on L02 [13] was Active. Also, the IC50 in experiment [1] was found to be 38.1 µM.

`OC[C@H]1O[C@@H](OCCc2cc(O)c(O)c(O)c2)[C@H](O)[C@@H](O)[C@H]1O`: the Activity amounted to 110% in the experiment with L02 [2]; 141% in the experiment on L02 [3]; 89% in the experiment with L02 [6]; 54% in the experiment on L02 [7]; 64% in the experiment with L02 [8]; 78% with L02 [9]. In addition, the Activity with L02 [10] came out at 164%; in the experiment on L02 [11], 76%; with L02 [12], 65%; in the experiment with L02 [14] it was 86%; in the experiment on L02 [15], 55%; in the experiment on L02 [16], 119%. Also, the result with L02 [4], in the experiment on L02 [5] and in the experiment on L02 [13] was Active. Further, the IC50 in [1] is 35.9 µM.

Regarding `OC[C@H]1O[C@@H](OCCc2ccc(O)c(Br)c2)[C@H](O)[C@@H](O)[C@H]1O`, in experiment [1], the IC50 was more than 100 µM.

On to `COc1cc(CCO[C@@H]2O[C@H](CO)[C@H](O)[C@H](O)[C@H]2O)ccc1O`, for which, in [1], the 50% inhibitory concentration (IC50) turned out to be 40.8 µM.

Consider `OC[C@H]1O[C@@H](OCCc2cc(Br)c(O)c(Br)c2)[C@H](O)[C@@H](O)[C@@H]1O`, for which the IC50 in [1] was more than 100 µM.

As for `OC[C@H]1O[C@@H](OCCc2ccc(O)c(Br)c2)[C@H](O)[C@@H](O)[C@@H]1O`, the IC50 in experiment [1] was more than 100 µM.

In the case of `OC[C@H]1O[C@@H](OCCc2ccc(O)cc2)[C@H](O)[C@@H](O)[C@@H]1O` [SALIDROSIDE], the Activity in the experiment on L02 [2] is 157%; in the experiment on L02 [3], 165%; with L02 [6], 61%; in the experiment on L02 [7], 49%; in the experiment on L02 [8] it was 53%; with L02 [9], 56%. The Activity in the experiment on L02 [10] was 168%; in the experiment with L02 [11], 56%; in the experiment on L02 [12], 52%; with L02 [14], 61%; in the experiment with L02 [15] it was 51%; in the experiment on L02 [16] it was 162%. Moreover, the outcome with L02 [4], in the experiment with L02 [5] and with L02 [13] was Active.

For the origin of these results see ChEMBL document CHEMBL3044980, “Free radical scavenging and hepatoprotective effects of salidroside analogs on CCl4-induced cytotoxicity in LO2 cells” (Med Chem Res, 2013).
